Measurements published in patent US10913750B2, “Tubulin-binding compounds, compositions and uses related thereto” (The Regents of the University of California, priority 2015, dated 2021).
pIC50: −log10 of the molar value.

Experiments:
M409 = assay: CellTiter-Glo cell viability, M409; assay type: cell-based
Description: (§1) To determine if MI-181 had broad anti-cancer activity, we treated a diverse panel of cancer cell lines including cervical adenocarcinoma (HeLa), breast adenocarcinoma (MCF7), melanoma (M233), osteosarcoma (U205), acute lymphoblastic leukemia (CCRF-CEM), non-small cell lung carcinoma (NCI-H460), and breast adenocarcinoma (MCF7) with MI-181 and determined its cell viability IC50 (FIGS. 13A and 13B). […] Therefore, the efficacy of MI-181 was analyzed in a panel of melanoma cell lines with defined genetic backgrounds including BRAF^V600E and NRAS^Q61L mutations and varied sensitivities to Vemurafenib (BRAF inhibitor) and Trametinib (MEK inhibitor), which are currently used to treat BRAF^V600E melanomas^43,44 (FIG. 10c). […] As a general trend BRAF^V600E cell lines were slightly more sensitive than NRAS^Q61L cell lines and MI-181 was effective in Vemurafenib and Trametinib resistant cell lines (FIG. 10c and Table 3). Finally, we tested the ability of MI-181 to inhibit melanoma colony formation using the M233 and M308 cell lines (both resistant to Vemurafenib). Indeed, MI-181 was a potent inhibitor of colony formation (percentage colony formation for 10 nM MI-181=0.2±0.1 and 0.8±0.7; for 10 nM colchicine=0.1±0.06 and 1.5±0.5; and for 10 nM Vemurafenib=94±7 and 102±5) (FIG. 10d). Thus, MI-181 is a potent inhibitor of melanoma cell lines. […]

β-tubulin = assay: Crystal structure of T2R-TTL tubulin complex soaked with ligand; assay type: binding, bovine; details: T2R-TTL crystal soaked 24 hours with 1 mM compound
Description: The crystal structure of tubulin bound to two ligands described here was obtained using an established system for tubulin crystal growth. […] Methods in Cell Biology 2010, 95:373-390.) Briefly, bovine αβ-tubulin, human RB3 or rat STMN4 stathmin-like domain, and chicken tubulin tyrosine ligase (TTL) reconstitute to form a stathmin-bound αβ-tubulin (T2R) T2R-TTL complex, which readily crystallizes. […]
The final resolution cutoffs described here were determined optimally from a subset of diffraction images that took into consideration the signal-to-noise ratio for reflection intensities and the random half-data set correlation coefficient, CC1/2 (Karplus P. A., Diederichs K. Linking crystallographic model and data quality. Science 2012, (New York, N.Y.) 336:1030-1033.) […]

M230 = assay: CellTiter-Glo cell viability, M230; assay type: cell-based
Description: as §1

- binding to tubulin in crystal structure (β-tubulin): bound to β-tubulin
SMILES: Cc1cc2nc(/C=C/c3cccnc3)sc2cc1C [MI-181]
- pIC50 (M409): 7.38
- pIC50 (M230): 7.38
